Test results reported in article PMC9104438, “Application of a Fluorescence Anisotropy-Based Assay to Quantify Transglutaminase 2 Activity in Cell Lysates” (International Journal of Molecular Sciences, 2022).

How the values were obtained:
Test in all cases: FA-based assay, characterization of irreversible inhibitors
hTGase 1 = molecular target: T1, hTGase 1 (Homo sapiens, UniProt P22735)
T1 sequence (P22735 1-817): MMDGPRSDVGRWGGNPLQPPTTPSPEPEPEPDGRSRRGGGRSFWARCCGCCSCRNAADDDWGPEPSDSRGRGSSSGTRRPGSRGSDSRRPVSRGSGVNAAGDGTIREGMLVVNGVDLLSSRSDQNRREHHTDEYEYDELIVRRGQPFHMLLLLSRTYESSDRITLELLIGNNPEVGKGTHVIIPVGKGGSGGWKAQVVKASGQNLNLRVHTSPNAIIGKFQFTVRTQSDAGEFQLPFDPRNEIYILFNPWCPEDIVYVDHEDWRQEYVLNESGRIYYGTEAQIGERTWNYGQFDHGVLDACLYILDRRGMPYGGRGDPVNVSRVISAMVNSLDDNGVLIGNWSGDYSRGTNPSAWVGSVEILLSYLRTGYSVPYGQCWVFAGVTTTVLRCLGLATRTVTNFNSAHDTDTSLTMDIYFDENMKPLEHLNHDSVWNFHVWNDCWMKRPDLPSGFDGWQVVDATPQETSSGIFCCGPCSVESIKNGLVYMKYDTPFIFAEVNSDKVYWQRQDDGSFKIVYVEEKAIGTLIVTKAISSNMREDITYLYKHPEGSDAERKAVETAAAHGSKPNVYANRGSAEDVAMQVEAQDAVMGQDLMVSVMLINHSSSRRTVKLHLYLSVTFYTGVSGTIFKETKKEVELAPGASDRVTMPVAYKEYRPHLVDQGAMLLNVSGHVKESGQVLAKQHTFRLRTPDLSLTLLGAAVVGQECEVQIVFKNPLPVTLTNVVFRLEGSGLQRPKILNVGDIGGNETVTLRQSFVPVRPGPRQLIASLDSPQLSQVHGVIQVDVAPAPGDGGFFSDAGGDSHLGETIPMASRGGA

hTGase 2 = molecular target: T2, hTGase 2 (Homo sapiens, UniProt P21980); conditions: DMC 30 µM, mean (SEM)
T2 sequence (P21980 1-687): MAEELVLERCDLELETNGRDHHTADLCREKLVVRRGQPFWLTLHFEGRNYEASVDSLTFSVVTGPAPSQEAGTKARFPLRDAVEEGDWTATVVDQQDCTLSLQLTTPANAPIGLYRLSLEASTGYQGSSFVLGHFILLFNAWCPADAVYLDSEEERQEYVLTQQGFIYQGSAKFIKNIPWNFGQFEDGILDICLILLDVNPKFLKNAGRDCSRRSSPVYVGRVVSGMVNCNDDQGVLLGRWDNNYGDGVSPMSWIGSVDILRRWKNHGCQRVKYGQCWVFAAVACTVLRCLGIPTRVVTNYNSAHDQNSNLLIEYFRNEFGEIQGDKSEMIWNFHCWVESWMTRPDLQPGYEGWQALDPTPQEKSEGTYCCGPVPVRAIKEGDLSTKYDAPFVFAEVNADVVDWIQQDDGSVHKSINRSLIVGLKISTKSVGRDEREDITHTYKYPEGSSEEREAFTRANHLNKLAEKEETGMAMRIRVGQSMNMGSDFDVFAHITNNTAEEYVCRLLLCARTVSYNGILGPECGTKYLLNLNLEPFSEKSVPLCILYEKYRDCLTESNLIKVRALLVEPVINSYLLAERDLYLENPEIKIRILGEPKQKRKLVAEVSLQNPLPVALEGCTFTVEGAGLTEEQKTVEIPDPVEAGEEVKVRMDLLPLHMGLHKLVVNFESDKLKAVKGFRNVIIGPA

hTGase 6 = molecular target: T3, hTGase 6 (Homo sapiens, UniProt O95932)
T3 sequence (O95932 1-706): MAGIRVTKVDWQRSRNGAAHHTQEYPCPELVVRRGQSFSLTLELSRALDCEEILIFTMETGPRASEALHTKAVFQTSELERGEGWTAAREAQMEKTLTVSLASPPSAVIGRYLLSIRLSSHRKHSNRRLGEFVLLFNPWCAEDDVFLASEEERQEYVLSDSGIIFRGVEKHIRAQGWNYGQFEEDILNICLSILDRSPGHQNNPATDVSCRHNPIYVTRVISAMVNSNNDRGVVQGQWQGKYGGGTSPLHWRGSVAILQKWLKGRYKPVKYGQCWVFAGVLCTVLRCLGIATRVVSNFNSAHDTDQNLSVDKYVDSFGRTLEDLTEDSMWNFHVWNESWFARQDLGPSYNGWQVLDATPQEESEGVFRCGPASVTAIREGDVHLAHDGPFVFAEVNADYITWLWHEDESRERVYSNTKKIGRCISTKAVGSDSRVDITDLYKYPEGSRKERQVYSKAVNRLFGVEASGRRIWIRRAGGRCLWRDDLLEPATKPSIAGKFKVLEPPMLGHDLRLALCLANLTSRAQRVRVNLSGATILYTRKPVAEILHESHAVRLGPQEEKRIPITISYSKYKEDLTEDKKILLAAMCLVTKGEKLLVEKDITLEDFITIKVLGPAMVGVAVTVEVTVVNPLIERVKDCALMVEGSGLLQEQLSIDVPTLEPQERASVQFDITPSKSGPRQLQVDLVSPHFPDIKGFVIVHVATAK

hFXIIIa = molecular target: T4, hFXIIIa (Homo sapiens, UniProt P00488)
T4 sequence (P00488 39-732 limits assumed): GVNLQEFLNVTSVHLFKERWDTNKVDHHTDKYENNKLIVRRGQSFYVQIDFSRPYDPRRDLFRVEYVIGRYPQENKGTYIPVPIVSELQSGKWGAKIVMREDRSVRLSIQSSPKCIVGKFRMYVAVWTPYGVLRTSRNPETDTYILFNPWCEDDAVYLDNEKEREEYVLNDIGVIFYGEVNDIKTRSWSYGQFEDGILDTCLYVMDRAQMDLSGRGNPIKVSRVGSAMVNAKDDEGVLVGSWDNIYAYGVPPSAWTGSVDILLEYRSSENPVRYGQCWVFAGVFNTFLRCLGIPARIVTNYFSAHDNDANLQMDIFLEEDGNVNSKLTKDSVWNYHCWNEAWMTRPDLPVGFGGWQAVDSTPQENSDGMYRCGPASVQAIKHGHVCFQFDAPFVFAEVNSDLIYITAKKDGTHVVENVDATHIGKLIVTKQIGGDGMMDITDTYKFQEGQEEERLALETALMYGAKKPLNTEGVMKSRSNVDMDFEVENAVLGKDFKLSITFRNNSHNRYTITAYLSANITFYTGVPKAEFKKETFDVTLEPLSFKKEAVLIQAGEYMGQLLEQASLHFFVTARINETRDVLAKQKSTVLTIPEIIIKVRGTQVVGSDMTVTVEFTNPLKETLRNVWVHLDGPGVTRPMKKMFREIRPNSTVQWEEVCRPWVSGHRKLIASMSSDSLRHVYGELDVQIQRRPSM

[1] = IC50 hTGase 2, preincubation 30 min, R-I-Cad 0.74 µM, hTGase 2 5 µg/mL
[2] = IC50 hTGase 2, preincubation 5 min, R-I-Cad 0.81 µM, hTGase 2 2 µg/mL

Row | IC50 (hTGase 1) [µM] | IC50 (hTGase 2; [1]) [µM] | IC50 (hTGase 6) [µM] | IC50 (hFXIIIa) [µM] | SMILES | IC50 (hTGase 2; [2]) [µM]
1 | > 30 | 0.04 | > 30 | > 30 | C=CC(=O)NCCCC[C@H](NC(=O)Cc1ccccc1)C(=O)N1CCN(c2cccc(C)n2)CC1 [Compound 1] | 
2 | 10.2 | 0.096 | 38.4 | 26.2 | C#Cc1cccc(N2CCN(C(=O)[C@H](CCCCNC(=O)C=C)NC(=O)Cc3ccccc3)CC2)n1 [Compound 3, N^α-Phenylacetyl-N^ε-acryloyl-L-lysine-4-(6-ethinylpyridin-2-yl)piperazide] | 0.441
3 | 8.99 | 0.042 | 19.5 | 17.6 | C=CC(=O)NCCCC[C@H](NC(=O)Cc1ccccc1)C(=O)N1CCN(c2ccc([N+](=O)[O-])nc2)CC1 [Compound 2] | 

Row | SMILES | IC50 (hTGase 1) [µM] | IC50 (hTGase 2; [1]) [µM] | IC50 (hTGase 6) [µM] | IC50 (hFXIIIa) [µM] | IC50 (hTGase 2; [2]) [µM]
4 | C=CC(=O)NCCCC[C@H](NC(=O)Cc1ccccc1)C(=O)N1CCN(c2cccc(-c3cn(CCOCCOCCOCCNC(=O)CCCC[C@@H]4SC[C@@H]5NC(=O)N[C@@H]54)nn3)n2)CC1 [Compound 4, N-(2-(2-(2-(2-(4-(6-(4-(N^6-acryloyl-N^2-(2-phenylacetyl)-L-lysyl)piperazin-1-yl)pyridin-2-yl)-1H-1,2,3-triazol-1-yl)ethoxy)ethoxy)ethoxy)ethyl)-5-((3aS,4S,6aR)-2-oxohexahydro-1H-thieno[3,4-d]imidazol-4-yl)pentanamide] | 4.56 | 0.068 | 21.8 | 7.12 | 0.249
